Results on 54 molecules are retold here after US20230135635A1, “INHIBITORS OF ULK1/2 AND METHODS OF USING SAME” (SALK INSTITUTE FOR BIOLOGICAL STUDIES, priority 2020, published 2023).

Some results are limits rather than exact numbers.

In one assay the target is T1, recombinant human ULK1 protein (1-649) (Homo sapiens, UniProt O75385).
T1 construct: recombinant human ULK1 protein (1-649, SignalChem #U01-11G); purchased SignalChem U01-11G
T1 sequence (O75385 1-649): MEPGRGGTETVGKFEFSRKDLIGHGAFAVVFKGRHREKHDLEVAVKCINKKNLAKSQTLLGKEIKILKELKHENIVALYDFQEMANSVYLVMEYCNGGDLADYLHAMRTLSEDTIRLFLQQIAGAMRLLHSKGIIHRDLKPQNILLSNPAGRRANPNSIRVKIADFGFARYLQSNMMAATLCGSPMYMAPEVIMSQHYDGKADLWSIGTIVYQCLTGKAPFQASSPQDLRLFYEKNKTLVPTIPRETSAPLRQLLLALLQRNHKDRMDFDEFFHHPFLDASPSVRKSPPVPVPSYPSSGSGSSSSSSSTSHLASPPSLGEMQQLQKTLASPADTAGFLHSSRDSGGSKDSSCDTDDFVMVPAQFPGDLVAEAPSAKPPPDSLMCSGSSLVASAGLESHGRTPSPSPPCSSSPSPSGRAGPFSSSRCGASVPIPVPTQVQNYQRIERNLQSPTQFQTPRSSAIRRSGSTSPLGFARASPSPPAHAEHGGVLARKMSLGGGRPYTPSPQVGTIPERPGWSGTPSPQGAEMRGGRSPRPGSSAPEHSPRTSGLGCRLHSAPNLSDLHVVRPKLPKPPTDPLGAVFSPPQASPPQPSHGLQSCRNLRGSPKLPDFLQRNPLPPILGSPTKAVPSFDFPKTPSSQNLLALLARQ
Kind of assay: ULK1 inhibition assay (ADP Glo). The assay is classed as biochemical. As to conditions: Table 2. Summed up:
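Recombinant ULK1 (2 ug/mL) phosphorylated myelin basic protein (80 ug/mL) at 25 uM ATP; ADP formed was detected by ADP-Glo after 1 h. Compounds ran in triplicate, 16-dose 3-fold serial dilution from 30 uM, to give IC50.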
What is called IC50 is the concentration that gives 50% inhibition. For the molecule `COC(=O)c1ccccc1Oc1nc(Nc2ccc(OC(F)F)cc2)ncc1Br` [Compound B25], the IC50 was greater than 1000 nM. On to `COC(=O)c1ccccc1Oc1nc(Nc2ccc3[nH]ncc3c2)ncc1Br` [Compound B26], for which the IC50 was in the range of 100 to 1000 nM.

In the case of `COC(=O)c1ccccc1Oc1nc(Nc2ccc(N3CCCC3)cc2)ncc1Br` [Compound B27], the IC50 is greater than 1000 nM. The same measure, in the same setting: under `COC(=O)c1ccccc1Oc1nc(Nc2cccc(C(F)(F)F)c2)ncc1Br` [Compound B28] stands greater than 1000 nM. Still for that read-out and setting: under `COC(=O)c1ccccc1Oc1nc(Nc2cccc(OC(F)F)c2)ncc1Br` [Compound B29] stands greater than 1000 nM; under `COC(=O)c1ccccc1Oc1nc(Nc2ccc3c(c2)CCO3)ncc1Br` [Compound B30], greater than 1000 nM; under `COC(=O)c1ccccc1Oc1nc(Nc2ccc3[nH]ccc3c2)ncc1Br` [Compound B31], greater than 1000 nM. The same measure, in the same setting: under `COC(=O)c1ccccc1Oc1nc(Nc2ccc(SC)cc2)ncc1Br` [Compound B32] stands greater than 1000 nM. As to `COC(=O)c1ccccc1Oc1nc(Nc2ccc3c(c2)COC3)ncc1Br` [Compound B33], the IC50 was greater than 1000 nM. Turning to `COC(=O)c1ccccc1Oc1nc(Nc2cc(F)c(OC)c(F)c2)ncc1Br` [Compound B34], the IC50 was greater than 1000 nM. The same measure, in the same setting: under `COC(=O)c1ccccc1Oc1nc(Nc2ccc3occc3c2)ncc1Br` [Compound B35] stands greater than 1000 nM; under `COC(=O)c1ccccc1Oc1nc(Nc2ccc(O)cc2)ncc1Br` [Compound B36], greater than 1000 nM; under `COC(=O)c1ccccc1Oc1nc(Nc2ccc(N)cc2)ncc1Br` [Compound B37], 100 to 1000 nM. Still for that read-out and setting: under `COC(=O)c1ccccc1Oc1nc(Nc2ccc(CO)cc2)ncc1Br` [Compound B38] stands greater than 1000 nM; under `COC(=O)c1ccccc1Oc1nc(Nc2ccc(OC)nc2)ncc1Br` [Compound B39], greater than 1000 nM. On the same count and under the same terms, the value for `COC(=O)c1ccccc1Oc1nc(Nc2cccc(OC(F)(F)F)c2)ncc1Br` [Compound B40] was greater than 1000 nM; that for `COC(=O)c1ccccc1Oc1nc(Nc2ccc(C(N)=O)cc2)ncc1Br` [Compound B41] was greater than 1000 nM. With `COC(=O)c1ccccc1Oc1nc(Nc2ccc(C(F)(F)F)cc2)ncc1Br` [Compound B42], the IC50 was greater than 1000 nM.

Consider `COC(=O)c1ccc(Nc2ncc(Br)c(Oc3ccccc3C(=O)OC)n2)cc1` [Compound B43], for which the IC50 was greater than 1000 nM. In the case of `COc1cc(Nc2ncc(Br)c(Oc3ccccc3C(=O)N3CCN(C)CC3)n2)cc(OC)c1OC` [Compound B44], the IC50 was greater than 1000 nM. Still for that read-out and setting: the value for `COc1cc(Nc2ncc(Br)c(Oc3ccccc3C(=O)N(C)CC#N)n2)cc(OC)c1OC` [Compound B45] was 100 to 1000 nM; that for `COC(=O)c1ccccc1Oc1nc(Nc2ccc(O)c(O)c2)ncc1Br` [Compound B46] was greater than 1000 nM. On the same count and under the same terms, the value for `COC(=O)c1ccccc1Oc1nc(Nc2ccc(N3CCNCC3)cc2)ncc1Br` [Compound B47] was greater than 1000 nM; that for `COC(=O)c1ccccc1Oc1ncnc(Nc2cc(OC)c(OC)c(OC)c2)n1` [Compound B48] was greater than 1000 nM; that for `COc1cc(Nc2ncc(Br)c(Oc3ccccc3C(=O)N(C)CC(C)(C)O)n2)cc(OC)c1OC` [Compound B49] was greater than 1000 nM. Turning to `COc1cc(Nc2ncc(Br)c(Oc3ccccc3C(=O)N3CCC3)n2)cc(OC)c1OC` [Compound B50], the IC50 was greater than 1000 nM. Same read-out and setting: under `CNC(=O)c1ccccc1Oc1nc(Nc2ccc3c(c2)OCCO3)ncc1C(F)(F)F` [Compound B51, 2-((2-((2,3-Dihydrobenzo[b][1,4]dioxin-6-yl)amino)-5-(trifluoromethyl)pyrimidin-4-yl)oxy)-N-methylbenzamide] stands greater than 1000 nM. As to `CNC(=O)c1ccccc1Oc1nc(Nc2ccc3c(c2)OCO3)ncc1C(F)(F)F` [Compound B52, 2-((2-(Benzo[d][1,3]dioxol-5-ylamino)-5-(trifluoromethyl)pyrimidin-4-yl)oxy)-N-methyl benzamide], the IC50 is greater than 1000 nM.

As for `Oc1nc(Nc2ccc3c(c2)OCO3)ncc1C(F)(F)F` [Compound B53, 2-(Benzo[d][1,3]dioxol-5-ylamino)-5-(trifluoromethyl)pyrimidin-4-ol], the IC50 is greater than 1000 nM.

Staying with this assay, now noted: Table 3.
Regarding `COc1cc(Nc2ncc(Br)c(Oc3ccccc3CO)n2)cc(OC)c1OC` [Compound C1], the IC50 was greater than 100 nM.

For `COCc1ccccc1Nc1nc(Nc2cc(OC)c(OC)c(OC)c2)ncc1Br` [Compound C2], the IC50 was less than 5 nM. Still for that read-out and setting: under `COc1cc(Nc2ncc(C(F)(F)F)c(Nc3ccccc3CO)n2)cc(OC)c1OC` [Compound C3] stands less than 5 nM; under `OCc1ccccc1Nc1nc(Nc2ccccc2)ncc1Br` [Compound C4], greater than 100 nM; under `COc1ccc(Nc2ncc(Br)c(Nc3ccccc3CO)n2)cc1` [Compound C5], 5 to 100 nM. Regarding `COc1cccc(Nc2ncc(Br)c(Nc3ccccc3CO)n2)c1` [Compound C6], the IC50 is less than 5 nM. Still for that read-out and setting: under `CC(=O)Nc1ccc(Nc2ncc(Br)c(Nc3ccccc3CO)n2)cc1` [Compound C7] stands 5 to 100 nM; under `OCc1ccccc1Nc1nc(Nc2ccc(OC(F)F)cc2)ncc1Br` [Compound C8], 5 to 100 nM; under `CN1CCN(c2ccc(Nc3ncc(Br)c(Nc4ccccc4CO)n3)cc2)CC1` [Compound C9], less than 5 nM.

Take `COc1cc(Oc2ncc(Br)c(Nc3ccccc3CO)n2)cc(OC)c1OC` [Compound C10]: the 50% inhibitory concentration (IC50) was greater than 100 nM.

Consider `CN(C)c1ccc(Nc2ncc(Br)c(Nc3ccccc3CO)n2)cc1` [Compound C11], for which the IC50 was less than 5 nM. On the same count and under the same terms, the value for `O=C(Nc1ccc(Nc2ncc(Br)c(Nc3ccccc3CO)n2)cc1)C1CC1` [Compound C12] was less than 5 nM; that for `COc1cc(Nc2nccc(Nc3ccccc3CN)n2)cc(OC)c1OC` [Compound C13] was greater than 100 nM; that for `NC(=O)c1ccc(Nc2ncc(Br)c(Nc3ccccc3CO)n2)cc1` [Compound C14] was 5 to 100 nM. The same measure, in the same setting: under `NCCCNc1ncc(Br)c(Nc2ccccc2CO)n1` [Compound C15] stands greater than 100 nM; under `OCCN(CCO)c1ccc(Nc2ncc(Br)c(Nc3ccccc3CO)n2)cc1` [Compound C16], less than 5 nM. In the case of `COc1cc(Nc2ncc(Br)c(Nc3ccccc3COC(C)=O)n2)cc(OC)c1OC` [Compound C17], the IC50 fell in the range of 5 to 100 nM. The same measure, in the same setting: the value for `COc1cc(Nc2ncc(Br)c(Nc3ccccc3CN(C)C)n2)cc(OC)c1OC` [Compound C18] was 5 to 100 nM; that for `COc1cc(Nc2ncc(Br)c(Nc3ccccc3COCC(=O)N(C)C)n2)cc(OC)c1OC` [Compound C19] was greater than 100 nM; that for `COc1cc(Nc2ncc(Br)c(Nc3ccccc3CN3CCN(C)CC3)n2)cc(OC)c1OC` [Compound C20] was greater than 100 nM. Turning to `COc1cc(Nc2ncc(Br)c(Nc3ccccc3COC(=O)N3CCOCC3)n2)cc(OC)c1OC` [Compound C21], the IC50 was greater than 100 nM.

As to `COc1cc(Nc2ncc(Br)c(Nc3ccccc3CN3CCN(S(C)(=O)=O)CC3)n2)cc(OC)c1OC` [Compound C22], the IC50 was greater than 100 nM. Same read-out and setting: the value for `COc1cc(Nc2ncc(Br)c(Nc3ccccc3CN(C)CCO)n2)cc(OC)c1OC` [Compound C23] was greater than 100 nM. On the same count and under the same terms, the value for `COc1cc(Nc2ncc(Br)c(Nc3ccccc3CNC3CC3)n2)cc(OC)c1OC` [Compound C24] was greater than 100 nM; that for `COc1cc(Nc2ncc(Br)c(Nc3ccccc3CNCC(N)=O)n2)cc(OC)c1OC` [Compound C25] was 5 to 100 nM.
